Measurements taken from ChEMBL document CHEMBL3091414, “Validation of Reactivity Descriptors to Assess the Aromatic Stacking within the Tyrosine Gate of FimH” (ACS Med Chem Lett, 2013).

Test: Binding affinity to Escherichia coli J96 FimH lectin domain (Phe1 to Thr158) expressed in Escherichia coli C43 (DE3) by surface plasmon resonance analysis
Work on `CCCCCCCO[C@H]1O[C@H](CO)[C@@H](O)[C@H](O)[C@@H]1O` yielded a Kd of 3.1 nM.
For `OCC#Cc1ccc(O[C@H]2O[C@H](CO)[C@@H](O)[C@H](O)[C@@H]2O)cc1`, the Kd was 36.9 nM.
`CCCSCCCO[C@H]1O[C@H](CO)[C@@H](O)[C@H](O)[C@@H]1O` showed a Kd of 14 nM.
For `O=C(C[C@H]1O[C@H](CO)[C@@H](O)[C@H](O)[C@@H]1O)Nc1nc2ccccc2s1`, the Kd was 59 nM.
Work on `O=C(C[C@H]1O[C@H](CO)[C@@H](O)[C@H](O)[C@@H]1O)Nc1nc2ccccc2[nH]1` yielded a Kd of 4200 nM.
Compound `O=C(C[C@H]1O[C@H](CO)[C@@H](O)[C@H](O)[C@@H]1O)Nc1ccccc1` has a Kd of 372 nM.
For `O=C(C[C@H]1O[C@H](CO)[C@@H](O)[C@H](O)[C@@H]1O)Nc1ccc(O)cc1`, the Kd was 328 nM.
`O=C(C[C@H]1O[C@H](CO)[C@@H](O)[C@H](O)[C@@H]1O)Nc1ccc(Cl)cc1` showed a Kd of 113 nM.
`COc1ccc(C#CCO[C@H]2O[C@H](CO)[C@@H](O)[C@H](O)[C@@H]2O)cc1` showed a Kd of 53 nM.
`CCCCO[C@H]1O[C@H](CO)[C@@H](O)[C@H](O)[C@@H]1O` [BUTYLALPHAMAN] gave a Kd of 151 nM.

Test: Binding affinity to Escherichia coli J96 FimH lectin domain (Phe1 to Thr158) expressed in Escherichia coli C43 (DE3) by isothermal titration calorimetry assay
In the case of `CCCCCCCO[C@H]1O[C@H](CO)[C@@H](O)[C@H](O)[C@@H]1O`, the Kd is reported as 7.3 nM.
For `COCC#Cc1ccc(O[C@H]2O[C@H](CO)[C@@H](O)[C@H](O)[C@@H]2O)cc1`, the Kd was 59.5 nM.
Compound `CCCCO[C@H]1O[C@H](CO)[C@@H](O)[C@H](O)[C@@H]1O` [BUTYLALPHAMAN] has a Kd of 154 nM.
